The values below come from article PMC10582325 (Frontiers in Pharmacology, 2023).

One data set is described as follows: in vivo. The following applies: male, BALB/c, mouse, tissue-to-plasma ratio (Kp).
Another data set concerns the target T1, rCYP3A5 (Homo sapiens, UniProt P20815).
T1 construct: purchased BD Gentest (Woburn, MA, United States)
The data set is described as follows: Reaction phenotyping of BDQ in recombinant P450 enzymes (rCYPs method). The format is in vitro ADME. The following applies: BDQ 1 μM, CYP3A5.

The target of a further data set is T2, rCYP3A4 (Homo sapiens, UniProt P08684).
T2 construct: purchased BD Gentest (Woburn, MA, United States)
The description is as above. The format is in vitro ADME. The conditions noted are these: BDQ 1 μM, CYP3A4.

Data set [1] in a line: Plasma concentration 3 h post dose in murine model of tuberculosis. The format is in vivo, BALB/c mice infected with M. tuberculosis H37Rv. The following applies: TB model; for concentration at 3 h: female, BALB/c, mouse, plasma, read-out: Mean plasma concentration at three hours after oral administration; for plasma concentration after coadministration as percent of BDQ alone: 3 h post dose, p < 0.05.

For the next data set, the target named is T3, rCYP2A6 (Homo sapiens, UniProt P11509).
T3 construct: purchased BD Gentest (Woburn, MA, United States)
T3 sequence (P11509 1-494): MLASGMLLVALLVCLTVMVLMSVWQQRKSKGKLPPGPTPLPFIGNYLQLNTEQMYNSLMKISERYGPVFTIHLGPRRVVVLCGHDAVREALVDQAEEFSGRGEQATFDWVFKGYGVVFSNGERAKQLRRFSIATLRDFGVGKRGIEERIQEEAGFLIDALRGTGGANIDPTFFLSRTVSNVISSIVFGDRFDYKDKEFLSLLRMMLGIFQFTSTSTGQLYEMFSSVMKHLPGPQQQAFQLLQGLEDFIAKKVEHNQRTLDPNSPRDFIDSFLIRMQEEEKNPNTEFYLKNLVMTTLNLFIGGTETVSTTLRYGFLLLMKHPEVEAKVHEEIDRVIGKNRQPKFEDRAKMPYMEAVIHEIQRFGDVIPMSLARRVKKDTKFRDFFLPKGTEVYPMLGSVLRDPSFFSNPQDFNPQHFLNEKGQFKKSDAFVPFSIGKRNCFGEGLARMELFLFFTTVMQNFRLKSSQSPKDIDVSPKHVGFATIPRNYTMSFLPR
Briefly: Reaction phenotyping of BDQ in recombinant P450 enzymes (rCYPs method). The conditions noted are these: BDQ 1 μM, M2 formation, CYP2A6. The format is in vitro ADME.

The conditions of data set [2]: male, BALB/c, mouse, in vivo.
Another data set concerns the target T4, rCYP2C8 (Homo sapiens, UniProt P10632).
T4 construct: purchased BD Gentest (Woburn, MA, United States)
T4 sequence (P10632 1-490): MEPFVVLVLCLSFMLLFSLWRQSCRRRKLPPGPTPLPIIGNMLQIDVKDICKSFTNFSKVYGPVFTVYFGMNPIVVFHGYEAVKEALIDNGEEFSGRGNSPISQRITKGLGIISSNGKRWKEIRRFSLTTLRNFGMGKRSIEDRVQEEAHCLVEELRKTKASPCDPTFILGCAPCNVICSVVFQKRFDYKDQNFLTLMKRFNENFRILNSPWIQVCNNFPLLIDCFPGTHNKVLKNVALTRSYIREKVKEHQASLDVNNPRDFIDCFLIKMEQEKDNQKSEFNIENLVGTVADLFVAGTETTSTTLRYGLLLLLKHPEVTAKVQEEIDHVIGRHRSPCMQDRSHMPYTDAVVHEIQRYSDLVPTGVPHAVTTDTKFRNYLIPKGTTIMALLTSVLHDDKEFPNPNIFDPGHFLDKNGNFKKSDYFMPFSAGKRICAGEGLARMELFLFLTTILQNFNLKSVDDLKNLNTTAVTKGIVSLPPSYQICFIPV
Briefly: Reaction phenotyping of BDQ in recombinant P450 enzymes (rCYPs method). The format is in vitro ADME. The following applies: BDQ 1 μM, CYP2C8.

The conditions of data set [3]: mouse, in vivo.
The target of a further data set is T5, rCYP2C19 (Homo sapiens, UniProt P33261).
T5 construct: purchased BD Gentest (Woburn, MA, United States)
The data set is described as follows: Reaction phenotyping of BDQ in recombinant P450 enzymes (rCYPs method). The format is in vitro ADME. The following applies: BDQ 1 μM, CYP2C19.

The subject of a further data set is phospholipidosis. The following applies: cited from earlier work.
A short description of data set [4]: Stability of BDQ, M2 and TBI-166 in mice plasma (LC-MS/MS validation).
Data set [5] is described as follows: Steady-state plasma pharmacokinetics of BDQ, M2 and TBI-166 in BALB/c mice. The following applies: for AUC(0-t): Plasma; for t 1/2: after last dose.
Data set [6] in a line: Lung and spleen tissue exposure in BALB/c mice.
For another data set, the system named is CYP3A4/5. The following applies: cited from earlier work.
The mark [7] stands for this setting: TBI-166 group (20 mg/kg), W4, LLOQ 5, 5, 15 ng/mL for BDQ, TBI-166, M2.
Setting [8] is: TBI-166 group (20 mg/kg), W8, LLOQ 5, 5, 15 ng/mL for BDQ, TBI-166, M2.

“And” between values parts separate entries of the source, which are not always exact repeats. Identical values can stand only once. Like-named read-outs stand apart in the source and are kept apart here. A value given as a limit tells only on which side of the number the result lay.

T1 sequence (P20815 whole entry): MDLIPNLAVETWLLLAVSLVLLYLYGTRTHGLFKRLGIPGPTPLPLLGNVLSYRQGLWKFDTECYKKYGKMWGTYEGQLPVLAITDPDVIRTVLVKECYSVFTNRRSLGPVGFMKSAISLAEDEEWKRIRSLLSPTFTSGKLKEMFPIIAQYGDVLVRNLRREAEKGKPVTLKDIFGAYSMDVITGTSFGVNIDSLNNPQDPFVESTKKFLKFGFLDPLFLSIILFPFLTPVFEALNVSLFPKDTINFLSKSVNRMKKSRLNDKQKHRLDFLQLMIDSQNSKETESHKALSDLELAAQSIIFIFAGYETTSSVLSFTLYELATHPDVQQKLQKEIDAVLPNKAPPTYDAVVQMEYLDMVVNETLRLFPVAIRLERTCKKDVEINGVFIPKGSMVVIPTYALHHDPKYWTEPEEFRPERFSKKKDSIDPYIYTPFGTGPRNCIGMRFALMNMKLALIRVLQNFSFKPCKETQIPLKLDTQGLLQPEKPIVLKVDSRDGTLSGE
T2 sequence (P08684 whole entry): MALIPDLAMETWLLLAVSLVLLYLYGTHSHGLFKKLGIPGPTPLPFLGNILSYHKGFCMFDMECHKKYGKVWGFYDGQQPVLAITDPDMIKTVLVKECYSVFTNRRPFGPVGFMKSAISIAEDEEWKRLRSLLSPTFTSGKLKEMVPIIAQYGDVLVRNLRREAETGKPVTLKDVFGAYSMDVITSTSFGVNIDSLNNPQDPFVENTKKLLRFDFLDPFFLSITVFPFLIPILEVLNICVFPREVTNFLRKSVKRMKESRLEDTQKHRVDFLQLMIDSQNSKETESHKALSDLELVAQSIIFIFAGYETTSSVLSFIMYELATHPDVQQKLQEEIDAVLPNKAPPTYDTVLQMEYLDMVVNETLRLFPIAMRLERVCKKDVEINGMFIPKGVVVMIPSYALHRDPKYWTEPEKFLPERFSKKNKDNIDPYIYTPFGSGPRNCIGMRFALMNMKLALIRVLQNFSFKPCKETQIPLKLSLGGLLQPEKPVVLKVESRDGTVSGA
T5 sequence (P33261 whole entry): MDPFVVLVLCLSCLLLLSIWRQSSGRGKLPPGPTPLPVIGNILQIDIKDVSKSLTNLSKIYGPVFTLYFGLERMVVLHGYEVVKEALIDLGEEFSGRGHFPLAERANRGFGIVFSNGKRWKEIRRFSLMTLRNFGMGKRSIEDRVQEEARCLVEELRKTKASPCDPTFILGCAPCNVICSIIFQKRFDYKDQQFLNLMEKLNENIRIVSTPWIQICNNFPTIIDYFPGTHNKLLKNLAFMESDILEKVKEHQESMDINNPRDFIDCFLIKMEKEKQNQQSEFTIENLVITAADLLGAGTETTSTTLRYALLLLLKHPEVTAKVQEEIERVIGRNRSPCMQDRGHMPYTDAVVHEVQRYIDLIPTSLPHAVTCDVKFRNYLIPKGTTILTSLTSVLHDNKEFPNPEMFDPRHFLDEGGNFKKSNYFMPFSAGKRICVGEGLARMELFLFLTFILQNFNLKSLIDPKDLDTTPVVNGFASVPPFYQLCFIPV

As for `COc1nc2ccc(Br)cc2cc1[C@@H](c1ccccc1)[C@@](O)(CCN(C)C)c1cccc2ccccc12` [BDQ, Bedaquiline], the Kp – broadly, the ratio of the level in a tissue or fluid to that in plasma or blood – in the data set “in vivo” stood at 19.7. In addition, the “f m (fraction of drug metabolism by individual CYP enzyme)” value at rCYP3A5 is 3.5%; at rCYP3A4, 73.1%; at rCYP2A6, 3.1%; on rCYP2C8, 8.8%; at rCYP2C19 it was 5.7%. The “Mean plasma concentration at three hours after oral administration” value in data set [1] (setting [7]) and in [1] (setting [8]) was “<LLOQ” each time. Further, the concentration at 3 h is 657 ± 142 ng/mL in [1] (oral, 25 mg/kg, BDQ group (25 mg/kg), W4, LLOQ 5, 5, 15 ng/mL for BDQ, TBI-166, M2); 920 ± 126 ng/mL in data set [1] (oral, 25 mg/kg, BDQ group (25 mg/kg), W8, LLOQ 5, 5, 15 ng/mL for BDQ, TBI-166, M2); 647 ± 199 ng/mL in data set [1] (po, BDQ + TBI-166 group, W4); 889 ± 171 ng/mL in data set [1] (po, BDQ + TBI-166 group, W8). In addition, in [2], the “AUC(0-last) as percent of single-drug group” value worked out at 100%. Also, the “MRT(0-t)” value in [2] (po, 25 mg/kg) worked out at 52.80 h. Also, the “exposure (AUC0-t) with vs without coadministration” value in data set [3] is on record as “similar”.

With `CNCC[C@@](O)(c1cccc2ccccc12)[C@H](c1ccccc1)c1cc2cc(Br)ccc2nc1OC` [M2, N-desmethyl-bedaquiline], the “plasma concentration after coadministration as percent of BDQ alone” value in data set [1] (4 weeks) worked out at 87%; in [1] (8 weeks), 79%. Besides, the “Mean plasma concentration at three hours after oral administration” value is 970 ng/mL and 969.68 ± 206.81 ng/mL in [1] (BDQ + TBI-166 group, W4); 948 ng/mL and 948.31 ± 60.21 ng/mL in data set [1] (BDQ + TBI-166 group, W8); “<LLOQ” in data set [1] (setting [7]); “<LLOQ” in data set [1] (setting [8]). Besides, the “higher cardiotoxicity by inducing phospholipidosis compared with BDQ” value in the data set with phospholipidosis is given as 50 times. The “Stability in mice plasma, RE” value in data set [4] (4℃ for 24 h, 45 ng/mL) was found to be 5.42%; in data set [4] (4℃ for 24 h, 225 ng/mL), 13.08%; in [4] (4℃ for 24 h, 2250 ng/mL) it was 9.97%; in data set [4] (-40℃ for 7 d, 45 ng/mL) it was 15.73%; in data set [4] (-40℃ for 7 d, 225 ng/mL), 2.77%; in data set [4] (-40℃ for 7 d, 2250 ng/mL) it was 9.33%. In addition, the “Stability in mice plasma, RE” value in data set [4] (Freeze-thaw three cycles, 45 ng/mL) is 12.58%; in data set [4] (Freeze-thaw three cycles, 225 ng/mL), 17.75%; in data set [4] (Freeze-thaw three cycles, 2250 ng/mL), 6.90%; in [4] (In auto-sample for 24 h, 45 ng/mL), 14.04%; in data set [4] (In auto-sample for 24 h, 225 ng/mL) it was 17.58%; in [4] (In auto-sample for 24 h, 2250 ng/mL), 4.83%. Further, the “Stability in mice plasma, RE” value in data set [4] (Room temperature for 24 h, 45 ng/mL) stood at 9.38%; in data set [4] (Room temperature for 24 h, 225 ng/mL) it was 17.30%; in data set [4] (Room temperature for 24 h, 2250 ng/mL) it was 4.03%. The “mean plasma concentration in BDQ + TBI-166 group as percent of BDQ group” value was found to be 85% in data set [5] (1 h post dose) and 75% in data set [5] (3 h post dose). The mean plasma concentration in [5] (1 h post dose (so in the source), BDQ group) is recorded as 1,438 ng/mL; in data set [5] (1 h post dose, BDQ + TBI-166 group), 1,235.36 ng/mL; in data set [5] (3 h post dose, BDQ + TBI-166 group), 1,084.84 ng/mL; in data set [5] (3 h post dose, BDQ group), 1,438.31 ng/mL. Further, in [5] (BDQ + TBI-166 group vs BDQ group), the “area under the curve ratio (AUCR)” value came to 0.66. For the same compound, the “AUC(0-t)” value in [5] (BDQ + TBI-166 group (Table S4)) is 76250 ± 8100 ng·h/mL; in data set [5] (BDQ group (Table S4)), 115730 ± 25440 ng·h/mL; in data set [6] (Lung, BDQ + TBI-166 group) it was 4940.02 ± 756.58 µg·h/g; in data set [6] (Lung, BDQ group), 4827.39 ± 818.42 µg·h/g; in data set [6] (Spleen, BDQ + TBI-166 group), 6358.44 ± 1054.47 µg·h/g; in [6] (Spleen, BDQ group), 4703.39 ± 1052.83 µg·h/g. For the same compound, the “AUC(0-last)” value is recorded as 76,310 ± 5,901 h·ng/mL in data set [5] (plasma, BDQ + TBI-166 group) and 115,704 ± 19,589 h·ng/mL in [5] (plasma, BDQ group (BDQ alone)). Also, the “AUC(0-last) as percent of single-drug group” value in data set [5] (plasma, BDQ + TBI-166 group) was 66%; in [5] (plasma, BDQ group (reference)), 100%. The “AUC(0-∞)” value was 89,814 h·ng/mL in data set [5] (plasma, BDQ + TBI-166 group) and 134,430 h·ng/mL in data set [5] (plasma, BDQ group (BDQ alone)). Moreover, the C max is 1,235.36 ± 22.74 ng/mL in [5] (plasma, BDQ + TBI-166 group) and 1,438.31 ± 127.21 ng/mL in data set [5] (plasma, BDQ group (BDQ alone)). The “MRT(0-t)” value in data set [5] (plasma, BDQ + TBI-166 group) was found to be 51.71 h; in data set [5] (plasma, BDQ group (BDQ alone)), 56.46 h. Further, the T max in data set [5] (plasma, BDQ + TBI-166 group) worked out at 1 h; in data set [5] (plasma, BDQ group (BDQ alone)), 3 h. For the same compound, the “t 1/2” value in [5] (plasma, BDQ + TBI-166 group (BDQ 25 mg/kg + TBI-166 20 mg/kg, gavage QD 21 days)) is 57.47 h; in data set [5] (plasma, BDQ group (BDQ 25 mg/kg alone, gavage QD 21 days)), 64.27 h. Besides, in data set [5] (plasma, vs BDQ group), the “decrease of AUC0-last after coadministration of BDQ with TBI-166” value is listed as 34%. Besides, the “tissue-to-plasma ratio (Kp)” value in data set [6] (Lung, BDQ + TBI-166 group) turned out to be 64.79; in data set [6] (Lung, BDQ group), 41.72; in data set [6] (Spleen, BDQ + TBI-166 group), 83.39; in data set [6] (Spleen, BDQ group) it was 40.65. For the same compound, the “exposure (AUC0-t) with vs without coadministration” value in data set [6] (lungs) was “similar”. Besides, the “increase of exposure (AUC0-t) after coadministration of BDQ with TBI-166” value in data set [6] (spleens) is recorded as 1.5 fold.

As to `CC(C)/N=c1\cc2n(-c3ccc(Cl)cc3)c3ccccc3nc-2cc1Nc1ccc(Cl)cc1` [clofazimine], the CYP3A4/5 inhibitor strength entry in the data set on CYP3A4/5 was “moderate-to-strong”.
